The values that follow come from patent US20060240117A1, “Snake powder extract for treatment of cancer” (priority 2002, published 2006).

One series has as its system tumor cell lines. The experiment in a line: Tumor cell proliferation, oxygen biosensor. It is filed as cell-based. Conditions: DMSO, ethanol and PBS extracts; FIGS. 6, 7, 8. How it is done: The following cell lines were utilized in the tests listed above: • Leukemia/Lymphoma: K562, Raji, Jurkatt, CEM; • Breast Carcinoma MCF-7, MDA-MB-231, MD-MB-468; • Prostate Carcinoma LNCaP, PC-3; • Colorectal Carcinoma: HT-29, HCT-116; • Pancreatic Carcinoma: PANC-1; • Gliobastaoma: GL10-1.
The DMSO and ETHANOL extract was prepared by the following process: • 4 g of powder was extracted with each • the extract was evaporated utilizing a speed vacuum centrifuge • when dried the extract was re-suspended in fresh solution at 1 g/ml. • the concentration of extract used ranges from 0.1 to 100 mg/ml
The PBS solution was prepared as follows: • dissolve 1 g/ml of powder within PBS solution • the concentration of extract used ranges from 0.1 to 100 mg/ml
Referring to FIGS. 6, 7, and 8 the effect of snake extract on tumor cell proliferation utilizing the DMSO, ethanol, and PBS solutions, is respectively analyzed. The methodology used to analyze tumor cell proliferation was oxygen biosensor. With this methodology culture plates are coated with an oxygen sensitive fluorescent compound embedded in a gas-permeable and hydrophobic matrix permanently attached to the bottom of a multi-well plate. The amount of fluorescence correlates directly to the rate of oxygen consumption in the well, providing a signal that can be directly correlated to cell growth.

The test system of the next series is Artemia salina nauplii. The experiment in a line: Brine shrimp lethality assay. The series is classed as in vivo. Conditions: 24 h, 27-28° C., triplicate. The procedure: The eggs of brine shrimp, Airtime salina (Leach), are used in monitoring bioactive compounds. The eggs are readily available in pet shops at low cost and remain viable for years in the dry state. The brine shrimp assay has advantages of being rapid (24 hrs), inexpensive, and simple. No aseptic techniques are required. It easily utilizes a large number of organisms for statistical validation and requires no special equipment and a relatively small amount of sample.
The assay was carried out with Artemia salina eggs. 50 mg of Artemia salina eggs in a beaker containing sea salt (6 g), yeast (0.9 mg) and distilled water (150 ml) were incubated at 27-28° C. for 24 hrs. The newly hatched nauplii were concentrated. From this volume, aliquots of 50 μl (approximately 18-20 nauplii) were pipette directly into a 24 well plates containing sea water (sw), −ve control (DMSO+sw), +ve control (emetine) or different concentrations of extracts (62.5-500 μg/ml). Assay was carried out in triplicate. The plates were sealed and incubated at 27-28° C. for 24 h. At the end of the 24-h incubation period, the content of each well was pipette into a watch glass individually. Survival was assessed by scoring the number of dead nauplii using a microscope. Once counts of dead nauplii had been taken, 0.5 ml of methanol was added to kill all remaining nauplii. The contents of each well were then recorded and result tabulated as (X/Y; where X number dead and Y=number of dead and alive).

In a further series the test system is MDA-MB-435 tumor masses. Conditions: cited from earlier work.
The subject of the next series is breast cancer cells. Conditions: cited from earlier work.
For a further series, the system named is B16F10 solid tumor. Conditions: C57BU6 mice; cited from earlier work.
In the next series the test system is angiogenesis. Conditions: elicited by basic fibroblast growth factor; cited from earlier work.

As for `CC[C@@]1(O)C(=O)OCc2c1cc1n(c2=O)Cc2cc3ccccc3nc2-1` [Camptothecin], the “inhibition of tumor cell proliferation” value with tumor cell lines is “more effective at inhibiting cell proliferation of different cell lines than the snake powder extract”.
What is called mortality is the percentage killed. Higher therefore signals a strong lethal effect. As to `CC[C@H]1CN2CCc3cc(OC)c(OC)cc3[C@@H]2C[C@@H]1C[C@H]1NCCc2cc(OC)c(OC)cc21` [Emetine], the mortality at 62.5 µg/mL in the series with Artemia salina nauplii (62.5 μg/ml) amounted to 58.2%. Moreover, the mortality at 125 µg/mL with Artemia salina nauplii (125 μg/ml) amounted to 100%. In the series on Artemia salina nauplii (250 μg/ml), the mortality at 250 µg/mL came to 100%. This compound returned a mortality at 500 µg/mL with Artemia salina nauplii (500 μg/ml) of 100%.
Contortrostatin: in the series on MDA-MB-435 tumor masses (immunohistochemical quantitation of vascular endothelial cells in tumor tissue), the “angiogenesis induced by breast cancer” value is recorded as “inhibiting angiogenesis induced by breast cancer”. The “inhibition of tumor growth” value in the series with MDA-MB-435 tumor masses (injected daily at 5 microgram per mouse to tumor masses) is reported as 74%. The “cytotoxicity to cancer cells” value with breast cancer cells is reported as “not cytotoxic to cancer cells”. Besides, in the series with breast cancer cells (in vitro), the “proliferation of the breast cancer cells” value is on record as “does not inhibit proliferation”.
Consider Rhodostomin, for which, in the series on B16F10 solid tumor, the survival entry is “prolonged survival” and the tumor growth entry is recorded as “suppressed tumor growth”. For the same compound, the angiogenesis result in the series with angiogenesis is reported as “inhibit angiogenesis”.
